For 15 molecules, IC50 results are on record in US20240360178A1, “MACROCYCLIC IMMUNOMODULATORS” (Bristol-Myers Squibb Company, priority 2021, published 2024).

Structures are written as SMILES. Positions of bridges follow the written chain, without caps; N, C: chain ends. Non-standard residues stand in square brackets, D forms with d. Residues, ends and D or L forms follow the SMILES beside them. *: point of attachment. Phe(4-COOH) = N[C@@H](Cc1ccc(C(=O)O)cc1)C(=O)O; Bip = N[C@@H](Cc1ccc(-c2ccccc2)cc1)C(=O)O; Phe(3-Me) = Cc1cccc(C[C@H](N)C(=O)O)c1; NMeF = CN[C@@H](Cc1ccccc1)C(=O)O; Carboxymethyl = O=C(O)C*; NMeA = CN[C@@H](C)C(=O)O; Orn = NCCC[C@H](N)C(=O)O; Dab = NCC[C@H](N)C(=O)O; Sar = CNCC(=O)O

Usually IC50 stands for the point on the concentration scale where inhibition reaches its midpoint.

The target of this assay is T1, human PD-1 (Jurkat-PD-1 cells) / PE-labeled human PD-L1-Ig (Homo sapiens, UniProt Q15116).
T1 construct: expressed in transfected cells; host or cells: Jurkat cell line over-expressing human PD-1
T1 sequence (Q15116 25-288): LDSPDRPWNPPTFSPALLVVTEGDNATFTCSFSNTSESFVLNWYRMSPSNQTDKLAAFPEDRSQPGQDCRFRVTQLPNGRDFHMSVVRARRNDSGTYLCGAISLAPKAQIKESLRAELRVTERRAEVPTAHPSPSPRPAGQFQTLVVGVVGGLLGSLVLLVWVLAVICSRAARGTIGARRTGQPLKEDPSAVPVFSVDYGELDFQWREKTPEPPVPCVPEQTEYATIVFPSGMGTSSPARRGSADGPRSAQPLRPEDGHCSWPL
Nature of the assay: Jurkat-PD-1 Cell Binding High-Content Screening Assay (CBA); Jurkat hPD1-PDL1 assay. To be noted: Jurkat cell line over-expressing human PD-1; PE-labeled PD-L1-Ig 20 nM final; compound incubated 2 hours at 37° C.; read-out: Jurkat HPD1-PDL1 IC50. The procedure, abridged:
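Cell binding by imaging: Jurkat line stably over-expressing human PD-1, compound pre-exposure 2 h at 37° C, PE-conjugated PD-L1-Ig 20 nM final, medium DMEM containing 10% FCS.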

Regarding `CC(C)C[C@@H]1NC(=O)[C@H](CCCNC(=N)N)NC(=O)[C@H](Cc2ccccc2)N(C)C(=O)[C@H](C)N(C)C(=O)[C@H](CCCNC(=N)N)NC(=O)[C@H](Cc2ccc(-c3ccccc3)cc2)NC(=O)[C@H](C(C)C)NC(=O)[C@H](Cc2c[nH]c3ccccc23)NC(=O)[C@H](CC(=O)O)NC(=O)[C@H](CCCCN)NC(=O)[C@H](Cc2ccccc2)NC(=O)CSC[C@@H](C(=O)NCC(N)=O)NC(=O)[C@H](CO)NC(=O)[C@H](C(C)C)NC1=O` [Example 1213] ({CH2CO}-FKDWV[Bip]R[NMeA][NMeF]RLVSCG-NH2; thioether N-14), the IC50 was determined as 0.59 µM.

As for `CC(C)C[C@@H]1NC(=O)[C@H](Cc2c[nH]c3ccccc23)NC(=O)[C@H](CC(=O)O)NC(=O)[C@H](Cc2ccc(O)cc2)NC(=O)[C@H](Cc2ccccc2)NC(=O)CSC[C@@H](C(=O)N[C@@H](C)C(N)=O)NC(=O)[C@H](CO)NC(=O)[C@H](C(C)C)NC(=O)[C@H](CC(C)C)NC(=O)[C@H](CC(N)=O)NC(=O)[C@H]2CCCN2C(=O)[C@H](C)N(C)C(=O)[C@H](CCC(=O)O)NC(=O)[C@H](Cc2ccc(-c3ccccc3)cc2)NC1=O` [Example 1039] ({CH2CO}-FYDWL[Bip]E[NMeA][dP]NLVSCA-NH2; thioether N-14), the IC50 is 0.07 µM.

Regarding `CC(C)C[C@@H]1NC(=O)[C@H](Cc2c[nH]c3ccccc23)NC(=O)[C@H](CC(=O)O)NC(=O)[C@H](Cc2ccc(O)cc2)NC(=O)[C@H](Cc2ccccc2)NC(=O)CSC[C@@H](C(=O)NCC(N)=O)NC(=O)[C@H](CO)NC(=O)[C@H](C(C)C)NC(=O)[C@H](CC(C)C)NC(=O)[C@H](CCC(N)=O)NC(=O)CN(C)C(=O)[C@H](C)N(C)C(=O)[C@H](C(C)C)NC(=O)[C@H](Cc2ccc(-c3ccccc3)cc2)NC1=O` [Example 1072] ({CH2CO}-FYDWL[Bip]V[NMeA][Sar]QLVSCG-NH2; thioether N-14), the IC50 was found to be 0.19 µM.

As to `CC(C)C[C@@H]1NC(=O)[C@H](Cc2c[nH]c3ccccc23)NC(=O)[C@H](CC(=O)O)NC(=O)[C@H](Cc2ccc(C(=O)O)cc2)NC(=O)[C@H](Cc2ccccc2)NC(=O)CSC[C@@H](C(=O)N[C@@H](C)C(N)=O)NC(=O)[C@H](CO)NC(=O)[C@H](C(C)C)NC(=O)[C@H](CC(C)C)NC(=O)[C@H](CC(N)=O)NC(=O)[C@H]2CCCN2C(=O)[C@H](C)N(C)C(=O)[C@H](C(C)C)NC(=O)[C@H](Cc2ccc(-c3ccccc3)cc2)NC1=O` [Example 1020] ({CH2CO}-F[Phe(4-COOH)]DWL[Bip]V[NMeA][dP]NLVSCA-NH2; thioether N-14), the IC50 came to 0.04 µM.

With `CC(C)C[C@@H]1NC(=O)[C@H](CCCNC(=N)N)NC(=O)[C@H](Cc2ccccc2)N(C)C(=O)[C@H](C)N(C)C(=O)[C@H](CCCNC(=N)N)NC(=O)[C@H](Cc2ccc(-c3ccccc3)cc2)NC(=O)[C@H](C(C)C)NC(=O)[C@H](Cc2c[nH]c3ccccc23)NC(=O)[C@H](CC(=O)O)NC(=O)[C@H](Cc2ccc(O)cc2)NC(=O)[C@H](Cc2ccccc2)NC(=O)CSC[C@@H](C(=O)N[C@@H](C)C(N)=O)NC(=O)[C@H]([C@@H](C)O)NC(=O)[C@H](C(C)C)NC1=O` [Example 1358] ({CH2CO}-FYDWV[Bip]R[NMeA][NMeF]RLVTCA-NH2; thioether N-14), the IC50 was determined as 0.4 µM.

As for `Cc1cccc(C[C@@H]2NC(=O)[C@H](CC(=O)O)NC(=O)[C@H](Cc3ccc(OCC(=O)O)cc3)NC(=O)[C@H](Cc3ccc(OCC(=O)O)cc3)NC(=O)CSC[C@@H](C(=O)N[C@@H](C)C(N)=O)NC(=O)[C@H](CO)NC(=O)[C@H](C(C)C)NC(=O)[C@H](CC(C)C)NC(=O)[C@H](CC(N)=O)NC(=O)[C@H]3CCCN3C(=O)[C@H](C)N(C)C(=O)[C@H](C(C)C)NC(=O)[C@H](Cc3ccc(-c4ccccc4)cc3)NC(=O)[C@H](CC(C)C)NC2=O)c1` [Example 1437] ({CH2CO}-Y(Carboxymethyl)Y(Carboxymethyl)D[Phe(3-Me)]L[Bip]V[NMeA][dP]NLVSCA-NH2; thioether N-14), the IC50 was 0.03 µM.

As for `CC(C)C[C@@H]1NC(=O)[C@H](Cc2c[nH]c3ccccc23)NC(=O)[C@H](CC(=O)O)NC(=O)[C@H](Cc2ccc(O)cc2)NC(=O)[C@H](Cc2ccccc2)NC(=O)CSC[C@@H](C(=O)N[C@@H](CO)C(N)=O)NC(=O)[C@H](CO)NC(=O)[C@H](C(C)C)NC(=O)[C@H](CC(C)C)NC(=O)[C@H](CC(N)=O)NC(=O)CN(C)C(=O)[C@H](C)N(C)C(=O)[C@H](C(C)C)NC(=O)[C@H](Cc2ccc(-c3ccccc3)cc2)NC1=O` [Example 1173] ({CH2CO}-FYDWL[Bip]V[NMeA][Sar]NLVSCS-NH2; thioether N-14), the IC50 was 0.95 µM.

`CC(C)C[C@@H]1NC(=O)[C@H](Cc2c[nH]c3ccccc23)NC(=O)[C@H](CC(=O)O)NC(=O)[C@H](Cc2ccc(O)cc2)NC(=O)[C@H](Cc2ccccc2)NC(=O)CSC[C@@H](C(=O)N[C@@H](C)C(N)=O)NC(=O)[C@H](CO)NC(=O)[C@H](C(C)C)NC(=O)[C@H](CC(C)C)NC(=O)[C@H](CC(N)=O)NC(=O)CN(C)C(=O)[C@H](C)N(C)C(=O)[C@H](CCC(=O)O)NC(=O)[C@H](Cc2ccc(-c3ccccc3)cc2)NC1=O` [Example 1119] ({CH2CO}-FYDWL[Bip]E[NMeA][Sar]NLVSCA-NH2; thioether N-14): the IC50 was 0.42 µM.

For the molecule `CC(C)C[C@@H]1NC(=O)[C@H](Cc2c[nH]c3ccccc23)NC(=O)[C@H](CC(=O)O)NC(=O)[C@H](Cc2ccc(O)cc2)NC(=O)[C@H](CC(N)=O)NC(=O)CSC[C@@H](C(=O)NCC(N)=O)NC(=O)[C@H](CO)NC(=O)[C@H](C(C)C)NC(=O)[C@H](CC(C)C)NC(=O)[C@H](CCN)NC(=O)[C@H]2CCCN2C(=O)[C@H](CCCN)NC(=O)[C@H](C(C)C)NC(=O)[C@H](Cc2ccc(-c3ccccc3)cc2)NC1=O` [Example 1403] ({CH2CO}-NYDWL[Bip]V[Orn][dP][Dab]LVSCG-NH2; thioether N-14), the IC50 turned out to be 0.07 µM.

Turning to `CC(C)C[C@@H]1NC(=O)[C@H](Cc2c[nH]c3ccccc23)NC(=O)[C@H](CC(=O)O)NC(=O)[C@H](Cc2ccc(O)cc2)NC(=O)[C@H](Cc2ccc(O)cc2)NC(=O)CSC[C@@H](C(=O)NCC(N)=O)NC(=O)[C@H](CO)NC(=O)[C@H](C(C)C)NC(=O)[C@H](CC(C)C)NC(=O)[C@H](CC(N)=O)NC(=O)CN(C)C(=O)[C@H](C)N(C)C(=O)[C@H](C(C)C)NC(=O)[C@H](Cc2ccc(-c3ccccc3)cc2)NC1=O` [Example 1152] ({CH2CO}-YYDWL[Bip]V[NMeA][Sar]NLVSCG-NH2; thioether N-14), the IC50 was 0.74 µM.

For the molecule `CC(C)C[C@@H]1NC(=O)[C@H](Cc2c[nH]c3ccccc23)NC(=O)[C@H](CC(=O)O)NC(=O)[C@H](Cc2ccc(O)cc2)NC(=O)[C@H](Cc2ccccc2)NC(=O)CSC[C@@H](C(=O)NCC(N)=O)NC(=O)[C@H](CO)NC(=O)[C@H](C(C)C)NC(=O)[C@H](CC(C)C)NC(=O)[C@H](CO)NC(=O)CN(C)C(=O)[C@H](C)N(C)C(=O)[C@H](C(C)C)NC(=O)[C@H](Cc2ccc(-c3ccccc3)cc2)NC1=O` [Example 1225] ({CH2CO}-FYDWL[Bip]V[NMeA][Sar]SLVSCG-NH2; thioether N-14), the IC50 is 0.96 µM.

Turning to `CC(C)C[C@@H]1NC(=O)[C@H](Cc2c[nH]c3ccccc23)NC(=O)[C@H](CC(=O)O)NC(=O)[C@H](Cc2ccc(O)cc2)NC(=O)[C@H](Cc2ccccc2)NC(=O)CSC[C@@H](C(=O)NCC(N)=O)NC(=O)[C@H]([C@@H](C)O)NC(=O)[C@H](C(C)C)NC(=O)[C@H](CC(C)C)NC(=O)[C@H](CCN)NC(=O)[C@H]2CCCN2C(=O)[C@H](CCCN)NC(=O)[C@H](C(C)C)NC(=O)[C@H](Cc2ccc(-c3ccccc3)cc2)NC1=O` [Example 1420] ({CH2CO}-FYDWL[Bip]V[Orn][dP][Dab]LVTCG-NH2; thioether N-14), the IC50 was determined as 0.13 µM.

Regarding `CC(C)C[C@@H]1NC(=O)[C@H](Cc2c[nH]c3ccccc23)NC(=O)[C@H](CC(=O)O)NC(=O)[C@H](Cc2ccc(O)cc2)NC(=O)[C@H](CC(N)=O)NC(=O)CSC[C@@H](C(=O)NCC(N)=O)NC(=O)[C@H](CO)NC(=O)[C@H](C(C)C)NC(=O)[C@H](CC(C)C)NC(=O)[C@H](CC(N)=O)NC(=O)CN(C)C(=O)[C@H](C)N(C)C(=O)[C@H](C(C)C)NC(=O)[C@H](Cc2ccc(-c3ccccc3)cc2)NC1=O` [Example 1140] ({CH2CO}-NYDWL[Bip]V[NMeA][Sar]NLVSCG-NH2; thioether N-14), the IC50 turned out to be 0.6 µM.

Turning to `CC(C)C[C@@H]1NC(=O)[C@H](CCCNC(=N)N)NC(=O)[C@H](Cc2ccccc2)N(C)C(=O)[C@H](C)N(C)C(=O)[C@H](CCC(=O)O)NC(=O)[C@H](Cc2ccc(-c3ccccc3)cc2)NC(=O)[C@H](C(C)C)NC(=O)[C@H](Cc2c[nH]c3ccccc23)NC(=O)[C@H](CC(=O)O)NC(=O)[C@H](Cc2ccc(O)cc2)NC(=O)[C@H](Cc2ccccc2)NC(=O)CSC[C@@H](C(=O)N[C@@H](C)C(N)=O)NC(=O)[C@H]([C@@H](C)O)NC(=O)[C@H](C(C)C)NC1=O` [Example 1344] ({CH2CO}-FYDWV[Bip]E[NMeA][NMeF]RLVTCA-NH2; thioether N-14), the IC50 is 0.22 µM.

As for `CC(C)C[C@@H]1NC(=O)[C@H](Cc2c[nH]c3ccccc23)NC(=O)[C@H](CC(=O)O)NC(=O)[C@H](Cc2ccc(OCC(=O)O)cc2)NC(=O)[C@H](Cc2ccc(OCC(=O)O)cc2)NC(=O)CSC[C@@H](C(=O)N[C@@H](C)C(N)=O)NC(=O)[C@H](CO)NC(=O)[C@H](C(C)C)NC(=O)[C@H](CC(C)C)NC(=O)[C@H](CC(N)=O)NC(=O)[C@H]2CCCN2C(=O)[C@H](C)N(C)C(=O)[C@H](C(C)C)NC(=O)[C@H](Cc2ccc(-c3ccccc3)cc2)NC1=O` [Example 1432] ({CH2CO}-Y(Carboxymethyl)Y(Carboxymethyl)DWL[Bip]V[NMeA][dP]NLVSCA-NH2; thioether N-14), the IC50 is 0.08 µM.
